Laboratory results reported in PMC12557383, “Development of a Potent and Functional In Vivo Peptide Competitive Inhibitor for the Toxin MazF” (Journal of Medicinal Chemistry, 2025).

Experiments:
Assay type in all cases: cell-based, Escherichia coli
[1] = system: E. coli cells expressing MazF; assay: Antibiotic survival assay (ciprofloxacin), coexpression with MazF; details: 4 μg/mL ciprofloxacin, up to 4 h; toxin induced 1 h before antibiotic
Description: This experiment was conducted as described above (“bacterial growth assay”) until the induction of the toxin. However, 1 h after mazF induction with 0.5% of L-arabinose, approximately two million cells were removed from each culture and diluted with LB (final volume of 10 mL) supplemented with IPTG, L-arabinose, and antibiotics for plasmid maintenance. Here, an aliquot of 1 mL was withdrawn, which represents time zero (before the implementation of antibiotic stress). Cells were then exposed to 4 μg/mL ciprofloxacin and incubated at 37 °C/215 rpm for 4 h. Aliquots of 1 mL were taken at intervals of 1 h and washed three times with LB medium (5,000 rpm/5 min/4 °C) to remove the antibiotic. After the last wash step, the culture medium was removed, and the cell pellet was resuspended in 100 μL of LB medium. 10-fold serial dilutions were made from this solution using LB medium, and 2 μL of each dilution was spotted on solid LB-agar supplemented with antibiotics for the maintenance of plasmids. Plates were incubated at 37 °C for 24 h and photographed. The experiment was repeated at least three times.

[2] = system: E. coli cells superexpressing MazF; assay: Glucose uptake assay (2-NBDG, flow cytometry), coexpression with MazF; details: cells coexpressing MazF and recombinant SamF, 400 μM 2-NBDG
Description: This experiment was carried out as described above (“bacterial cell growth assay”). However, 1 h after mazF induction with 1% of L-arabinose, cells were harvested by centrifugation (10 min/4,500 rpm/4 °C). The cell pellet was resuspended in 5 mL of M9 media without glucose or any other carbon source (M9^–glucose). Cells were pelleted again and resuspended in M9^–glucose as above. Ten million cells were removed from this solution in a final volume of 5 mL of M9^–glucose and incubated with 400 μM of the fluorescent glucose analog 2-NDBG (Thermofisher) at 37 °C/300 rpm. Aliquots of 0.5 mL were taken at 1 h intervals for a period of 3 h. To remove the noninternalized 2-NBG dye, cells were centrifuged (10 min/4,500 rpm/4 °C) and the supernatant was removed. After a new wash step with 1 mL of M9^–glucose, the cell pellet was resuspended in 0.5 mL of M9^–glucose. Cells were placed on ice until all samples were collected and then immediately subjected to flow cytometry on a BD FACS Canto II system (BD Biosciences) with an excitation/emission wavelength at 488/530 nm. The percentage of cells labeled with 2-NGDG was calculated relative to the fluorescence of the stainless control with FlowJo software.

[3] = system: E. coli cells superexpressing MazF; assay: Resazurin assay (redox state), coexpression with MazF; details: cells coexpressing MazF and recombinant SamF, 1 h MazF expression, 75 μg/mL resazurin
Description: This experiment was conducted as described above (“bacterial cell growth assay”). However, 1 h after mazF induction with 1% of L-arabinose, approximately 40 millions of cells in 200 μL of LB (with antibiotics, IPTG and L-arabinose) were taken and incubated with 75 μg/mL of resazurin (final concentration). The experiment was performed in a 96-well plate in triplicate. The plate was incubated at 37 °C/70 rpm, and the color development, due to resazurin reduction, was monitored every hour visually and by scanning the dye absorbance between 500–700 nm.

[4] = system: E. coli cells superexpressing MazF; assay: Oxygen consumption assay, coexpression with MazF; details: cells coexpressing MazF and recombinant SamF; 1 mM IPTG, 1% L-arabinose, 37 °C
Description: This experiment was conducted as described above (“bacterial growth assay”). However, 90 min after induction of recombinant samF with 1 mM IPTG, an aliquot of 1 mL of a cell suspension containing approximately 2.5 million cells was removed from each culture and placed into the chamber of an Oroboros O2K oxygraph (Bioplast) instrument. After equilibration of the oxygen consumption rate, mazF expression was induced by the addition of 1% of L-arabinose, and the consumption rate and amount of dissolved oxygen was monitored for a period of about 3 h. The experiment was carried out at 37 °C under orbital shaking at 200 rpm and repeated at least three times.

Q: How did the “Survival of cells coexpressing MazF and the peptide under ciprofloxacin (result in words)” value [1] turn out when “MSHLFWAQFDEYF [recombinant SamF, recombinantly expressed SamF ([…]) from pET-24a-samF in E. coli]” was run?
A: The value was “almost eradicated after only 1 h”.

Q: And the “Percentage of cells labeled with 2-NBDG” value ([2]; first hour)?
A: Its value is 64%.

Q: And the “Percentage of cells labeled with 2-NBDG” value ([2]; second hour)?
A: Its value is 87%.

Q: What about the “Percentage of cells labeled with 2-NBDG” value ([2]; third hour) of the same sequence?
A: The value was 96%.

Q: And the “Time to complete reduction of resazurin” value [3]?
A: Its value is 3 to 4 h.

Q: What about the “Oxygen consumption rate after mazF induction” value [4] of the same sequence?
A: The value was 20 pmol/s.
